Test results taken from publication PMC8895377, “In Vivo Targeting Replication Protein A for Cancer Therapy” (Frontiers in Oncology, 2022).

Assays:
[1] = parameters: method as in PMID 32550990; details: cited from earlier work
H460 cells = test: Caspase 3/7 apoptosis assay; format: cell-based, human; details: H460, 24 h
Description: Apoptosis induction was determined by activation of Caspases 3 and 7 using the CellEvent™ Caspase-3/7 Green Detection Reagent (Invitrogen). H460 cells were plated at 5 × 10^3 cells/well in black 96-well plates with clear bottoms (Costar) and incubated for 24 h prior to treatments. Cells were treated with the indicated concentration of RPAi or cisplatin for 24 h. The vehicle (DMSO) concentration was held constant at 1% for RPAi treatments. For caspase 3/7 detection, medium was removed and replaced with phosphate buffered saline (PBS) containing 5% fetal bovine serum (FBS) and 2 µM CellEvent™ Caspase-3/7 Green Detection Reagent. Cells were incubated at 37°C/5% CO2 for 1 h, and fluorescence intensity was measured in a BioTek Synergy H1 plate reader (excitation/emission 485/528). Images were captured with an Evos FL2 Auto microscope (Invitrogen) using a 10× objective.
Figure 3 The 329 induction of apoptotic cell death. (A) Analysis of caspase 3/7 activity in H460 cells following 24 h of treatment with 1% DMSO or the indicated concentrations of 329. Fluorescence images were captured as described in the Materials and Methods. (B) Quantification of caspase 3/7 activity. Fluorescence was measured in 96-well plates using a Biotek Synergy H1 plate reader following 24-h incubation with the indicated drugs and concentrations.

H460 NSCLC cells = test: CCK-8 viability assay; format: cell-based, human; details: H460, 48 h, compared to 551 predecessor
Description: Cell lines were obtained from ATCC and maintained as monolayer cultures in RPMI 1640 medium (H460) or Dulbecco’s Modified Eagle's Medium (DMEM) (A549) supplemented with 10% fetal bovine serum. H460 and A549 cells were plated at 2.5 × 10^3 cells/well and A2780 and GCT27 cells plated at 5 × 10^3 cells/well in a 96-well plate and incubated for 18–24 h prior to treatments. Cells were treated with the indicated concentration of RPAi for 48 h. The vehicle (DMSO) concentration was held constant at 1%. Cell metabolism/viability was assessed by a mitochondrial metabolism assay (CCK-8) as we have described previously ([10]). The generation of the water-soluble formazan product by cellular dehydrogenases is proportional to the number of living cells. Following incubation with CCK-8 reagent, absorbance was measured at 450 nm with a BioTek Synergy H1 plate reader. Values were compared to those of vehicle-treated controls to determine percent viability, and the results represent the average and SEM of triplicate determinations.

[2] = test system: A549 adenocarcinoma xenografts; test: A549 xenograft efficacy; format: in vivo, mice
Excerpt: To assess anticancer efficacy, the hind flanks of 60 8–10-week-old Nod SCID gamma (NSG) mice were implanted with the indicated cells (~2 × 10^6) in Matrigel. Tumor volumes were monitored by electronic caliper measurement [tumor volumes = length × (perpendicular width)^2 × 0.5]. NSG studies were approved by the Institutional Animal Care and Use Committee at Indiana University School of Medicine. Male NSG (NOD‐scid/IL2Rg^null) mice (In Vivo Therapeutics Core Facility, IU Simon Comprehensive Cancer Center, Indianapolis, IN, USA) were used and housed in a pathogen‐free facility at IUSM LARC. Mice with tumors of approximately 100 mm^3 were randomized into individual treatment arms. The indicated RPAi was formulated and administered via intraperitoneal injection (IP) at the indicated times. Tumor volumes were monitored biweekly as indicated, and the results are presented as the average tumor volume ± standard error of the mean for each group. […]
Figure 8 In vivo analysis of anticancer activity of 329. (A) Anticancer activity was assessed in human H460 NCSLC tumor xenografts in NOD/SCID mice. Mice were implanted subcutaneously on day 1 with H460 NSCLC cells, tumors were measured by calipers, and mice assigned randomly to treatment arms. […] (C) Tumor weight from A549 cells was determined on day 32. […]

[3] = target: T1, RPA–DNA interaction (purified full-length RPA) (Homo sapiens, UniProt P27694); test: EMSA of RPA–DNA interaction inhibition; format: binding; details: 6.25, 12.5, 25, 50 µM RPAi
T1 construct: Purified full-length RPA (120 ng) was incubated with the indicated RPAi
T1 sequence (P27694 whole entry): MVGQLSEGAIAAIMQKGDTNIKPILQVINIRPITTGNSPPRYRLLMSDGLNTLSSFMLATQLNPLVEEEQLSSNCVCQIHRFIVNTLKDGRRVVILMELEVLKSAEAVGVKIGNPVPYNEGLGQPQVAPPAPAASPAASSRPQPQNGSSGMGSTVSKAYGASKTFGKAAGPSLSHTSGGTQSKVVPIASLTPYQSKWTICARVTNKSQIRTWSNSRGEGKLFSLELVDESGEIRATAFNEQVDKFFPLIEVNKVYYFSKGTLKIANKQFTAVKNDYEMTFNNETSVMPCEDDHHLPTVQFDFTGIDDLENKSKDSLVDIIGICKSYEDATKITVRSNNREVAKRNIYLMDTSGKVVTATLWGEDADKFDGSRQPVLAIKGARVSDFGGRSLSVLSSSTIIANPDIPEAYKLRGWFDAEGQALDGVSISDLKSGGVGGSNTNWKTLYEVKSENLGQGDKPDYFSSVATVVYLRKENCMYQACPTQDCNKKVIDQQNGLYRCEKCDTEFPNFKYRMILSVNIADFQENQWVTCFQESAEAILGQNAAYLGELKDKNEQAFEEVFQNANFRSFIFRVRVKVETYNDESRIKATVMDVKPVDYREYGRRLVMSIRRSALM
T1 sequence (P15927 whole entry partner): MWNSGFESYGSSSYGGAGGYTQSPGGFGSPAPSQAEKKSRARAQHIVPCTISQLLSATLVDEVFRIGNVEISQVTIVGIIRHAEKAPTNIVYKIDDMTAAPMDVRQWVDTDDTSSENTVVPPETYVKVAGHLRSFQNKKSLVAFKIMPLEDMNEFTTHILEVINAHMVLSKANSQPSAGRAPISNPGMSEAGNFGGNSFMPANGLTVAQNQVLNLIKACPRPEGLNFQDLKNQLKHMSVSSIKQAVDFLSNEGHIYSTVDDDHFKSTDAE
T1 sequence (P35244 whole entry partner): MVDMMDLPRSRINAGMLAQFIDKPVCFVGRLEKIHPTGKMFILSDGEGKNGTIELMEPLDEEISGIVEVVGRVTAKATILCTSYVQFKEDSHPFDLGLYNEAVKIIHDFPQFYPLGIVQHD
Description: EMSAs were performed as previously described ([9]). Briefly, reactions were conducted in 20 mM HEPES (pH 7.8), 1 mM DTT, 0.001% NP-40, and 50 mM NaCl. RPAis were suspended in 100% dimethlysulfoxide (DMSO), and DMSO concentration in the final reaction mixture was constant at less than 5%. Purified full-length RPA (120 ng) was incubated with the indicated RPAi or vehicle in reaction buffer for 30 min before the addition of the [^32]P-labeled 34-base ssDNA probe. Reactions were incubated for 5 min at room temperature, and products were separated via 6% native polyacrylamide gel electrophoresis. The bound and unbound fractions were quantified by phosphor-imager analysis using ImageQuant software (Molecular Dynamics, CA), and data were fit by non-linear regression using GraphPad Prism.
Figure 2 Replication protein A inhibitor (RPAi) inhibitory activity. (A) Chemical structure of RPAi’s 329 and 2004. (B) EMSA analysis of RPA–DNA interaction inhibition by 329 and 2004. Lanes 3–6 in each panel contain 6.25, 12.5, 25, and 50 µM of the indicated RPAi, respectively. The * indicates the position of the Escherichia coli SSB–single-stranded DNA (ssDNA) complex that serves as an internal specificity control. (C) Cell viability of H460 NSCLC cells in response to 329 and 2004.

Q: For CCOc1ccc2cc(C3CC(c4ccc(I)cc4)=NN3C(=O)CCCC(=O)NCCCN3CCOCC3)c(Cl)nc2c1 (stereo not drawn) [compound 329], which “solubility, cellular uptake, and physicochemical properties” value [1] is on record?
A: The value was “excellent”.

Q: And the “activation of caspases 3 and 7” value (H460 cells)?
A: The value was “induces cell death via a classical apoptotic pathway”.

Q: What about the “single-agent cellular anticancer activity (CCK-8)” value (H460 NSCLC cells) of the same molecule?
A: The value was “potent single-agent activity”.

Q: And the tumor growth ([2]; 40 mg/kg IP once daily from day 11, optimized formulation)?
A: Its tumor growth is “significant reduction in tumor growth”.

Q: And the terminal tumor weight ([2]; 40 mg/kg IP, day 32)?
A: Its terminal tumor weight is “significant smaller tumors”.

Q: And the “RPA inhibitory activity (RPA–DNA interaction, EMSA)” value [3]?
A: Its value is “potent RPA inhibitory activity”.
